Data published in patent US20220056484A1, “SELECTION BY MEANS OF ARTIFICIAL TRANSACTIVATORS” (Ospedale San Raffaele S.R.L., priority 2018, published 2022).

System: CXCR4 selector in IL2RG locus, CD34+ cells
Test: SMArT-D in CD34+ cells, IL2RG locus, CXCR4 selector
Format: cell-based, human
Conditions: lower dose (80 nM), after washout
Protocol: CD34+ cells were edited according to a previously optimized protocol (Schiroli et al., 2017). Briefly, 5×10^5 CD34+ cells/ml were stimulated in serum-free StemSpan medium (StemCell Technologies) supplemented with penicillin, streptomycin, glutamine, 1 μM SR-1 (Biovision), 50 μM UM171 (STEMCell Technologies), 10 μM PGE2 added only at the beginning of the culture (Cayman), and human early-acting cytokines (SCF 100 ng/ml, Flt3-L 100 ng/ml, TPO 20 ng/ml, and IL-6 20 ng/ml; all purchased from Peprotech). After 3 days of pre-stimulation, cells were washed with PBS and electroporated using P3 Primary Cell 4D-Nucleofector X Kit and program EO-100 (Lonza). Cells were electroporated with 2.5-1.25 μM of RNPs. Transduction with AAV6 was performed at a dose of 1×10^4 vg/cell 15′ after electroporation. […] Gene editing efficiency was measured from cultured cells in vitro 3 days after electroporation by flow cytometry measuring the percentage of cells expressing the GFP/truncated NGFR/CXCR4 marker or by digital droplet PCR analysis designing primers and probe on the junction between the vector sequence and the targeted locus and on control sequences utilized as normalizer.

C[C@H]1c2cccc(O)c2C(=O)C2=C(O)[C@]3(O)C(=O)C(C(N)=O)=C(O)[C@@H](N(C)C)[C@@H]3[C@@H](O)[C@@H]21 [doxycycline]
CXCR4-overexpressing cells in the most primitive compartment: up to 13%
